According to patent US20090062382A1, “EXTERNAL PREPARATION FOR IMPROVING COITAL FUNCTION” (CARDIOVASCULAR INSTITUTE, LTD., priority 2003, published 2009):

Tested on: penis
Test: Clinical study: penile temperature change by thermography
Assay type: in vivo, human
Settings: intra-urethral infusion; FIG. 7
Procedure: Five (5) healthcare workers of 60 to 69 years old having no early-morning erection were subjected to the study. After obtaining verbal informed consent, the study was carried out from May 2001 through February 2003 as described below.
After keeping the subjects at rest with naked from the waist down for 5 minutes at room temperature of 25° C. and humidity of 60%, temperature of a penis, oxygen saturation in a penile sponge body, and hardness of a penis were measured. The measurement was carried out before administration of the preparation as reference and at 1, 3, 6, 12, 24 and 36 hours after administration, and the value of change (changed value±average error) were recorded. When there was no change at 3 hours after administration, the preparation was considered not effective and measurement thereafter was quitted.
Embrocation: 0.5 ml of each preparation was applied all over to a glans and a penis.
The relevant infusion apparatus was inserted into a urethra, and 0.5 ml of the preparation was infused by rotating a cylinder.
Temperature rise reflects increased blood-flow. So, penile temperature was measured by a thermography (Thermo Tracer TH5108, NEC San-ei Instruments, Ltd.). As this instrument can display a measurement site and temperature of the site numerically on a screen, measurements before and after administrations were possible to be performed at the same position. […]

CC#CCC(C)[C@H](O)/C=C/[C@@H]1[C@H]2c3cccc(CCCC(=O)[O-])c3O[C@H]2C[C@H]1O.[Na+] (relative stereo) [beraprost sodium, (+)-(1R*,2R*,3aS*,8bS*)-2,3,3a,8b-tetrahydro-2-hydroxy-1-[(e)-(3S*)-3-hydroxy-4-methyl-1-octene-6-ynyl]-1H-cyclopenta [b]benzofuran-5-butanoic acid sodium salt]
level and duration of temperature increase: low
